Source: patent publication US10647721B2, “Bicyclic heteroaryl derivatives” (Hoffmann-La Roche Inc., priority 2016, dated 2020)

System: γ-secretase
Test: Cellular γ-secretase assay (inhibition of Aβ42 secretion, AlphaLisa)
Assay type: cell-based
Details: human neuroglioma H4 cells overexpressing human APP695 Swedish double mutation, 24 hr compound incubation
Procedure: Cellular γ-Secretase Assay
Human neuroglioma H4 cells overexpressing human APP695 with the Swedish double mutation (K595N/M596L) were plated at 30,000 cells/well/100 μl in 96-well plates in IMDM media containing 10% FCS, 0.2 mg/l Hygromycin B and incubated at 37° C., 5% CO2.
3-4 hr post plating, compounds are a diluted in media and 50 μl is added as 1.5-fold concentrate to achieve the final concentration. Compound incubation is performed for 24 hr. Final doses typically range from 4 μm down to 0.0013 μm in half-log steps resulting in a eight point dose response curve.
Appropriate controls using vehicle only and reference compound were applied to this assay. The final concentration of Me2SO was 0.4%.
After incubation at 37° C., 5% CO2, the supernatant was subjected to quantification of secreted Aβ42 by the means of an AlphaLisa assay kit (Human Amyloid beta 1-42 Kit: Cat # AL203C, Perkin Elmer). 20 μl of the cell culture supernatant was transferred to an assay plate. Then 10 μl of a mixture of the AlphaLisa coupled capture antibody and the biotinylated detection antibody was added and incubated for 3 hours at room temperature while softly shaking the assay plate. After a further addition of 20 μl of the Donor beads the assay plate was incubated for 30 min at room temperature and constant shaking without exposure to direct light. The assay plate was then read on a Paradigm AlphaLisa Reader using the build-in program with excitation at 680 nm and emission at […].
The measured signals were then used to calculate IC50 values for inhibition of Aβ42 secretion by nonlinear regression fit analysis using XLfit 5.3 software (IDBS).

| EC50 | SMILES |
| --- | --- |
| 13.2 nM | COc1cc(Nc2nc3n(n2)CCCCN3c2ccc(F)c(F)c2)ccc1-c1cnc(C)o1 [Example 7, 4-(3,4-difluorophenyl)-N-[3-methoxy-4-(2-methyloxazol-5-yl)phenyl]-5,6,7,8-tetrahydro-[1,2,4]triazolo[1,5-a][1,3]diazepin-2-amine] |
| 137 nM | Fc1ccc(N2CCCn3nc(Nc4ccc(-n5cnc(Cl)c5)c(Cl)c4)nc32)cc1F [Example 28, N-[3-chloro-4-(4-chloroimidazol-1-yl)phenyl]-4-(3,4-difluorophenyl)-6,7-dihydro-5H-[1,2,4]triazolo[1,5-a]pyrimidin-2-amine] |
| 12.6 nM | COc1cc(Nc2nc3n(n2)CCCN3c2ccc(F)cc2)ccc1-c1cnc(C)o1 [Example 43, 4-(4-fluorophenyl)-N-[3-methoxy-4-(2-methyloxazol-5-yl)phenyl]-6,7-dihydro-5H-[1,2,4]triazolo[1,5-a]pyrimidin-2-amine] |
| 35.8 nM | COc1cc(Nc2nc3n(n2)CCCCN3c2ccc(F)c(F)c2)ccc1-n1cnc(C)n1 [Example 8, 4-(3,4-difluorophenyl)-N-[3-methoxy-4-(3-methyl-1,2,4-triazol-1-yl)phenyl]-5,6,7,8-tetrahydro-[1,2,4]triazolo[1,5-a][1,3]diazepin-2-amine] |
| 14.1 nM | COc1cc(Nc2nc3n(n2)CCCN3c2cccc(F)c2)ccc1-n1cnc(Cl)c1 [Example 32, N-[4-(4-chloroimidazol-1-yl)-3-methoxy-phenyl]-4-(3-fluorophenyl)-6,7-dihydro-5H-[1,2,4]triazolo[1,5-a]pyrimidin-2-amine] |
| 30 nM | COc1cc(Nc2nc3n(n2)CCN3c2ccc(F)c(F)c2F)ccc1-n1cnc(Cl)c1 [Example 45, N-[4-(4-chloroimidazol-1-yl)-3-methoxy-phenyl]-4-(2,3,4-trifluorophenyl)-5,6-dihydroimidazo[1,2-b][1,2,4]triazol-2-amine] |
| 32.9 nM | COc1cc(Nc2nc3n(n2)CCCN3c2ccc(F)c(F)c2F)ccc1-n1cnc(C)n1 [Example 16, N-[3-methoxy-4-(3-methyl-1,2,4-triazol-1-yl)phenyl]-4-(2,3,4-trifluorophenyl)-6,7-dihydro-5H-[1,2,4]triazolo[1,5-a]pyrimidin-2-amine] |
| 22.4 nM | COc1cc(Nc2nc3n(n2)CCCCN3c2ccc(F)c(F)c2)ccc1-n1cnc(Cl)c1 [Example 9, N-[4-(4-chloroimidazol-1-yl)-3-methoxy-phenyl]-4-(3,4-difluorophenyl)-5,6,7,8-tetrahydro-[1,2,4]triazolo[1,5-a][1,3]diazepin-2-amine] |
| 21 nM | N#Cc1cc(Nc2nc3n(n2)CCCN3c2ccc(F)cc2)ccc1-n1cnc(Cl)c1 [Example 35, 2-(4-chloroimidazol-1-yl)-5-[[4-(4-fluorophenyl)-6,7-dihydro-5H-[1,2,4]triazolo[1,5-a]pyrimidin-2-yl]amino]benzonitrile] |
| 21.4 nM | COc1cc(Nc2nc3n(n2)CCCN3c2ccc(F)c(F)c2)cnc1-n1cnc(Cl)c1 [Example 5, N-[6-(4-chloroimidazol-1-yl)-5-methoxy-3-pyridyl]-4-(3,4-difluorophenyl)-6,7-dihydro-5H-[1,2,4]triazolo[1,5-a]pyrimidin-2-amine] |
| 37 nM | COc1cc(Nc2nc3n(n2)CCCN3c2ccc(F)c(F)c2)ccc1-n1cnc(C(F)(F)F)c1 [Example 3, 4-(3,4-difluorophenyl)-N-[3-methoxy-4-[4-(trifluoromethyl)imidazol-1-yl]phenyl]-6,7-dihydro-5H-[1,2,4]triazolo[1,5-a]pyrimidin-2-amine] |
| 22.5 nM | Fc1ccc(N2CCCn3nc(Nc4ccc(-n5cnc(Cl)c5)c(F)c4)nc32)cc1F [Example 18, N-[4-(4-chloroimidazol-1-yl)-3-fluoro-phenyl]-4-(3,4-difluorophenyl)-6,7-dihydro-5H-[1,2,4]triazolo[1,5-a]pyrimidin-2-amine] |
| 94.7 nM | COc1cc(Nc2nc3n(n2)CCCN3c2ccccc2)ccc1-n1cnc(C)n1 [Example 48, N-[3-methoxy-4-(3-methyl-1,2,4-triazol-1-yl)phenyl]-4-phenyl-6,7-dihydro-5H-[1,2,4]triazolo[1,5-a]pyrimidin-2-amine] |
| 14.2 nM | COc1cc(Nc2nc3n(n2)CCCN3c2cc(F)cc(F)c2)ccc1-n1cnc(C)n1 [Example 41, 4-(3,5-difluorophenyl)-N-[3-methoxy-4-(3-methyl-1,2,4-triazol-1-yl)phenyl]-6,7-dihydro-5H-[1,2,4]triazolo[1,5-a]pyrimidin-2-amine] |
| 9 nM | N#Cc1cc(Nc2nc3n(n2)CCCN3c2ccc(F)c(F)c2)ccc1-n1cnc(Cl)c1 [Example 24, 2-(4-chloroimidazol-1-yl)-5-[[4-(3,4-difluorophenyl)-6,7-dihydro-5H-[1,2,4]triazolo[1,5-a]pyrimidin-2-yl]amino]benzonitrile] |
| 20.2 nM | Cc1ncc(-c2ccc(Nc3nc4n(n3)CCCN4c3ccc(F)c(F)c3)cc2C#N)o1 [Example 27, 5-[[4-(3,4-difluorophenyl)-6,7-dihydro-5H-[1,2,4]triazolo[1,5-a]pyrimidin-2-yl]amino]-2-(2-methyloxazol-5-yl)benzonitrile] |
| 102 nM | Fc1ccc(N2CCCn3nc(Nc4ccc(-n5cnc(Cl)n5)c(F)c4)nc32)cc1F [Example 21, N-[4-(3-chloro-1,2,4-triazol-1-yl)-3-fluoro-phenyl]-4-(3,4-difluorophenyl)-6,7-dihydro-5H-[1,2,4]triazolo[1,5-a]pyrimidin-2-amine] |
| 89.9 nM | Fc1ccc(N2CCCn3nc(Nc4ccc(-n5cncn5)c(F)c4)nc32)cc1F [Example 14, 4-(3,4-difluorophenyl)-N-[3-fluoro-4-(1,2,4-triazol-1-yl)phenyl]-6,7-dihydro-5H-[1,2,4]triazolo[1,5-a]pyrimidin-2-amine] |
| 56.1 nM | Cc1ncn(-c2ccc(Nc3nc4n(n3)CCCN4c3ccc(F)c(F)c3)cc2)n1 [Example 29, 4-(3,4-difluorophenyl)-N-[4-(3-methyl-1,2,4-triazol-1-yl)phenyl]-6,7-dihydro-5H-[1,2,4]triazolo[1,5-a]pyrimidin-2-amine] |
| 52.1 nM | Cc1cn(-c2ccc(Nc3nc4n(n3)CCCN4c3ccc(F)c(F)c3)cc2)nn1 [Example 47, 4-(3,4-difluorophenyl)-N-[4-(4-methyltriazol-1-yl)phenyl]-6,7-dihydro-5H-[1,2,4]triazolo[1,5-a]pyrimidin-2-amine] |
| 13.8 nM | COc1cc(Nc2nc3n(n2)CCCN3c2ccc(F)cc2)cnc1-n1cnc(Cl)c1 [Example 38, N-[6-(4-chloroimidazol-1-yl)-5-methoxy-3-pyridyl]-4-(4-fluorophenyl)-6,7-dihydro-5H-[1,2,4]triazolo[1,5-a]pyrimidin-2-amine] |
| 8.3 nM | COc1cc(Nc2nc3n(n2)CCCN3c2ccc(F)c(F)c2)ccc1-n1cnc(Cl)c1 [Example 6, N-[4-(4-chloroimidazol-1-yl)-3-methoxy-phenyl]-4-(3,4-difluorophenyl)-6,7-dihydro-5H-[1,2,4]triazolo[1,5-a]pyrimidin-2-amine] |
| 29.8 nM | COc1cc(Nc2nc3n(n2)CCCN3c2ccc(F)c(F)c2)ccc1-n1cnc(Cl)n1 [Example 12, N-[4-(3-chloro-1,2,4-triazol-1-yl)-3-methoxy-phenyl]-4-(3,4-difluorophenyl)-6,7-dihydro-5H-[1,2,4]triazolo[1,5-a]pyrimidin-2-amine] |
| 58.5 nM | COc1cc(Nc2nc3n(n2)CCCN3c2ccc(F)c(F)c2)ccc1-c1cc(C)n[nH]1 [Example 25, 4-(3,4-difluorophenyl)-N-[3-methoxy-4-(3-methyl-1H-pyrazol-5-yl)phenyl]-6,7-dihydro-5H-[1,2,4]triazolo[1,5-a]pyrimidin-2-amine] |
| 20.3 nM | COc1cc(Nc2nc3n(n2)CCCN3c2ccc(F)c(F)c2)ccc1-n1cnc(F)c1 [Example 40, 4-(3,4-difluorophenyl)-N-[4-(4-fluoroimidazol-1-yl)-3-methoxy-phenyl]-6,7-dihydro-5H-[1,2,4]triazolo[1,5-a]pyrimidin-2-amine] |
| 35.2 nM | COc1cc(Nc2nc3n(n2)CCCN3c2ccc(F)cc2)ccc1-n1cnc(C)n1 [Example 33, 4-(4-fluorophenyl)-N-[3-methoxy-4-(3-methyl-1,2,4-triazol-1-yl)phenyl]-6,7-dihydro-5H-[1,2,4]triazolo[1,5-a]pyrimidin-2-amine] |
| 40.4 nM | COc1cc(Nc2nc3n(n2)CCN3c2ccc(F)c(F)c2)ccc1-n1cnc(Cl)c1 [Example 46, N-[4-(4-chloroimidazol-1-yl)-3-methoxy-phenyl]-4-(3,4-difluorophenyl)-5,6-dihydroimidazo[1,2-b][1,2,4]triazol-2-amine] |
| 61.9 nM | COc1cc(Nc2nc3n(n2)CCCCN3c2ccc(F)c(F)c2)ccc1-n1cnc(C(F)(F)F)c1 [Example 10, 4-(3,4-difluorophenyl)-N-[3-methoxy-4-[4-(trifluoromethyl)imidazol-1-yl]phenyl]-5,6,7,8-tetrahydro-[1,2,4]triazolo[1,5-a][1,3]diazepin-2-amine] |
| 34.2 nM | Cc1ncn(-c2ccc(Nc3nc4n(n3)CCCN4c3ccc(F)cc3)cc2OC(F)F)n1 [Example 37, N-[3-(difluoromethoxy)-4-(3-methyl-1,2,4-triazol-1-yl)phenyl]-4-(4-fluorophenyl)-6,7-dihydro-5H-[1,2,4]triazolo[1,5-a]pyrimidin-2-amine] |
